Experimental data taken from US7579515B2, “Increasing gamete production with a gene switch” (North Carolina State University, priority 2003, dated 2009).

System: transgenic mice carrying FSHβLCR/tet receptor plus tet operator/FSHβ gene
Experiment: Ovulation (oocyte count) in FSHβ-switch transgenic female mice fed Dox
Assay type: in vivo
Source text: Female mice (7 weeks old) were fed rat chow±Dox (6 gm/kg) and were put with males 6 days after feeding began. Females were checked for copulation plugs am and pm and were euthanized the morning plugs were found; uteri and ovaries were excised from each mouse and oocytes were freed from the ampulla and separated from cumulus cells with hyaluronidase (FIG. 3B). Oocytes were counted (see FIG. 3A). All Dox-fed mice ovulated within 5 days of male exposure except one (19 days) and it produced 90 oocytes. The sheep FSHβLCR was isolated along with its promoter in accordance with standard techniques and operatively associated with a new structural gene, the tet receptor, so that mice carrying this transgene expressed the tet receptor exclusively and strongly in pituitary gonadotropes. Linked to the […] was a second gene unit: the tet operator operatively associated with the structural gene for sheep FSHβ. […] The increase in FSHβ production created more FSH which increased ovulation by 2.4-fold (from an average of 12±0.5 to 29±4). Ovulation of this magnitude is matched only by time-consuming treatments with costly fertility hormones.

## C[C@H]1c2cccc(O)c2C(=O)C2=C(O)[C@]3(O)C(=O)C(C(N)=O)=C(O)[C@@H](N(C)C)[C@@H]3[C@@H](O)[C@@H]21 [doxycycline]
All Dox-fed mice except one (19 days)
  time to ovulation after male exposure: ≤ 5 days
The one Dox-fed mouse that ovulated at 19 days of male exposure, oocytes appeared normal
  oocytes produced by a single mouse: 90
Transgenic female mice, 7 weeks old, rat chow with Dox 6 gm/kg, put with males 6 days after feeding began, without Dox average 12±0.5
  oocytes ovulated, average: 29±4
Transgenic mice, ligand administered vs not administered
  increase in ovulation: 2.4 fold
